The record followed here is patent publication US12509457B2, “Bicyclic nitrogen containing heterocycles as inhibitors of salt-induced kinase SIK2” (priority 2019, dated 2025).

What all share (assay type): biochemical
The target of one test is SIK2 (Homo sapiens, UniProt Q9H0K1). The test is described as follows: SIK2 kinase assay, IMAP fluorescence polarization. The settings on record: 50 or 100 μM ATP; average; read-out: SIK2-AVERAGE Ki. (Fluorescence polarisation rises when a labelled molecule tumbles more slowly, as on binding a larger partner.)
The target of another test is SIK1 (Homo sapiens, UniProt P57059). The test is described as follows: SIK1 kinase assay, IMAP fluorescence polarization. The settings on record: 50 or 100 μM ATP; average; read-out: SIK1-AVERAGE Ki.
Another test has as its target SIK3 (Homo sapiens, UniProt Q9Y2K2). The test is described as follows: SIK3 kinase assay, IMAP fluorescence polarization. The conditions noted are these: 50 or 100 μM ATP; average; read-out: SIK3-AVERAGE Ki.
The target of a further test is Abl (Homo sapiens, UniProt P00519). The test is described as follows: Abl kinase assay, IMAP fluorescence polarization. The conditions noted are these: 50 or 100 μM ATP; average; read-out: Abl-AVERAGE Ki.
The next test concerns the target Src (Homo sapiens, UniProt P12931). The test is described as follows: Src kinase assay, IMAP fluorescence polarization. The conditions noted are these: 50 or 100 μM ATP; average; read-out: Src-AVERAGE Ki.
In a further test the target is EPHA2 (Homo sapiens, UniProt P29317). Kind of test: EPHA2 kinase assay, IMAP fluorescence polarization. The conditions noted are these: 50 or 100 μM ATP; average.
Chain of EPHA2 (P29317 24-976): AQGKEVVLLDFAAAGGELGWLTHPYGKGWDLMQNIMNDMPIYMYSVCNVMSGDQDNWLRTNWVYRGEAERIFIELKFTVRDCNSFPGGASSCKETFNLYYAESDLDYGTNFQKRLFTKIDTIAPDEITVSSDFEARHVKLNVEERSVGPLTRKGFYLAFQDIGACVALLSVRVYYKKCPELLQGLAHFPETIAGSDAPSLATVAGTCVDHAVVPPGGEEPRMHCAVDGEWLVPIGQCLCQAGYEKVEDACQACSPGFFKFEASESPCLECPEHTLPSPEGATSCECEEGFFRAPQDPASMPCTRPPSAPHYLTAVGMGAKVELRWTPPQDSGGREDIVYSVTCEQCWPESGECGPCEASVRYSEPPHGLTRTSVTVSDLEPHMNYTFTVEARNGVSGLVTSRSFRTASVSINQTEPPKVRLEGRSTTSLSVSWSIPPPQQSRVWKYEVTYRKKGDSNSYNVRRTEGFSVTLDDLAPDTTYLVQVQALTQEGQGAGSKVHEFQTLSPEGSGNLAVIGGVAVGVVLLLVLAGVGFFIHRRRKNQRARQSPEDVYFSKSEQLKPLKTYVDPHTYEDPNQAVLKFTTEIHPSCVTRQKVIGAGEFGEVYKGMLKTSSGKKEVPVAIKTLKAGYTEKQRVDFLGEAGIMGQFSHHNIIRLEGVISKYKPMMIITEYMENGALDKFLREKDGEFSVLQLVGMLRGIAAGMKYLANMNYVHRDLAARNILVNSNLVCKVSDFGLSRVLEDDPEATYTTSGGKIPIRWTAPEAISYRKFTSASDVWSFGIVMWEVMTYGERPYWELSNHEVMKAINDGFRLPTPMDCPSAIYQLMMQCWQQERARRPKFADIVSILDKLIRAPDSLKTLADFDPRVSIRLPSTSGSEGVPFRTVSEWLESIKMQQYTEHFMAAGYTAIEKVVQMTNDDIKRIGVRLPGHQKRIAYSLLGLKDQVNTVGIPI

Chain of Abl (P00519 whole entry): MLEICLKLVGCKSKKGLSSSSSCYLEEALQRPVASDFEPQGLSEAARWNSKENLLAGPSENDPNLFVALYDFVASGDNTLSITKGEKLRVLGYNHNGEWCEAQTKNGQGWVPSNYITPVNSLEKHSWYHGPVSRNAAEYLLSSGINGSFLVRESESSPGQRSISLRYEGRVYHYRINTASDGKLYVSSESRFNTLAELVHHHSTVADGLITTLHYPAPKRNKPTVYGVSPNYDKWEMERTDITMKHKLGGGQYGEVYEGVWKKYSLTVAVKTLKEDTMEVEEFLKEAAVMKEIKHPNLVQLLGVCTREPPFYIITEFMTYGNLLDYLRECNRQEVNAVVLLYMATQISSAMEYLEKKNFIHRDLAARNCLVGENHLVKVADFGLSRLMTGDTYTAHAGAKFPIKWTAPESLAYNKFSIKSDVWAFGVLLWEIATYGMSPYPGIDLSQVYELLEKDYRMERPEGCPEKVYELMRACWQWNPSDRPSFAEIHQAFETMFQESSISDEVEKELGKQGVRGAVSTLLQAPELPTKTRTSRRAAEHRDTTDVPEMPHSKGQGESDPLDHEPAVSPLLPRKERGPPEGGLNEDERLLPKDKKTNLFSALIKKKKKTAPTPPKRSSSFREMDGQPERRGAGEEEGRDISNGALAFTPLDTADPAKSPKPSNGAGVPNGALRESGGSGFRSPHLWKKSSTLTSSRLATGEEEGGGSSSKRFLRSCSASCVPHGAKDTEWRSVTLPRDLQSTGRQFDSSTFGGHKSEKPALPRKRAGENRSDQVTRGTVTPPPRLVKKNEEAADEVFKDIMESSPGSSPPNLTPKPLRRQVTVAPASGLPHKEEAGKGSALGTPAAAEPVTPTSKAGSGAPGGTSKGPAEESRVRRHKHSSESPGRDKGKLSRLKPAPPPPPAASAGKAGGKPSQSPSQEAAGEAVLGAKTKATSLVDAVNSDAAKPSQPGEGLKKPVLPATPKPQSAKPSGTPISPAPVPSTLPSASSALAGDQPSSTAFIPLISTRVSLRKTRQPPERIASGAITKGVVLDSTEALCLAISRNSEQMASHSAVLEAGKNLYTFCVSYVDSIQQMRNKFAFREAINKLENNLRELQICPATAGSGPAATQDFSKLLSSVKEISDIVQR
Chain of SIK3 (Q9Y2K2 whole entry): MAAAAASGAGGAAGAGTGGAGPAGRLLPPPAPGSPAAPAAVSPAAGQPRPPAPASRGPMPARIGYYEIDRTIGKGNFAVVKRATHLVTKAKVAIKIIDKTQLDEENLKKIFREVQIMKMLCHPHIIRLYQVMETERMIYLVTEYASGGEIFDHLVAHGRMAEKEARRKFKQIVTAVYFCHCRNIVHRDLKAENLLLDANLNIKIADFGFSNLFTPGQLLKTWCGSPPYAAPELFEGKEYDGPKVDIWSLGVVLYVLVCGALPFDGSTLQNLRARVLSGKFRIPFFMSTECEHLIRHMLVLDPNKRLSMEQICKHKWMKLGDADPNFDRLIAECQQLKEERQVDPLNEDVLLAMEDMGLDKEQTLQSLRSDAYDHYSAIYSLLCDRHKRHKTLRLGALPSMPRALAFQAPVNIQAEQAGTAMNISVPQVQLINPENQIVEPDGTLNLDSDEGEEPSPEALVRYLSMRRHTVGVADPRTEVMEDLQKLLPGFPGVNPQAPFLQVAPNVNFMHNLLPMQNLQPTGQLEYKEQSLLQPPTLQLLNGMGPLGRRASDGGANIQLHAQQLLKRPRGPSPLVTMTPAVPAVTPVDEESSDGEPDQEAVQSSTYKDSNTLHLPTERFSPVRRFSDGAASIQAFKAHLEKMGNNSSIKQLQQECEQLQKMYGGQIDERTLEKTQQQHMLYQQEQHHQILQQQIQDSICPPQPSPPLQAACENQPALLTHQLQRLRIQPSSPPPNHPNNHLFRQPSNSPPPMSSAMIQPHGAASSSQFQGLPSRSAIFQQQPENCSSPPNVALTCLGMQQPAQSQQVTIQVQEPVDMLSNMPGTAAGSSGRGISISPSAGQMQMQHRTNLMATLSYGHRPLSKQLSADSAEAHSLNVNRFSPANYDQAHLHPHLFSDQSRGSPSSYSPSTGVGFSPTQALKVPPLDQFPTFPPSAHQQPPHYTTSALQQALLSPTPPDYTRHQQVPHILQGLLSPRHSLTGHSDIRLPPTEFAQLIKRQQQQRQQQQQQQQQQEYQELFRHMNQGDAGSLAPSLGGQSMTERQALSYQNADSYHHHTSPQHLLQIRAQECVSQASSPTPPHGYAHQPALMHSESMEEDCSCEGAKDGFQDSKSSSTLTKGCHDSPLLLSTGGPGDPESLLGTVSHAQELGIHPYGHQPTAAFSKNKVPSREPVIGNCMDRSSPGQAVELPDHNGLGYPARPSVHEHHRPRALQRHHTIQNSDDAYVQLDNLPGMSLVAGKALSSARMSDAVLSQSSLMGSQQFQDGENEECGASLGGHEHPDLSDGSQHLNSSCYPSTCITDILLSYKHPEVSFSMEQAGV
Chain of SIK1 (P57059 whole entry): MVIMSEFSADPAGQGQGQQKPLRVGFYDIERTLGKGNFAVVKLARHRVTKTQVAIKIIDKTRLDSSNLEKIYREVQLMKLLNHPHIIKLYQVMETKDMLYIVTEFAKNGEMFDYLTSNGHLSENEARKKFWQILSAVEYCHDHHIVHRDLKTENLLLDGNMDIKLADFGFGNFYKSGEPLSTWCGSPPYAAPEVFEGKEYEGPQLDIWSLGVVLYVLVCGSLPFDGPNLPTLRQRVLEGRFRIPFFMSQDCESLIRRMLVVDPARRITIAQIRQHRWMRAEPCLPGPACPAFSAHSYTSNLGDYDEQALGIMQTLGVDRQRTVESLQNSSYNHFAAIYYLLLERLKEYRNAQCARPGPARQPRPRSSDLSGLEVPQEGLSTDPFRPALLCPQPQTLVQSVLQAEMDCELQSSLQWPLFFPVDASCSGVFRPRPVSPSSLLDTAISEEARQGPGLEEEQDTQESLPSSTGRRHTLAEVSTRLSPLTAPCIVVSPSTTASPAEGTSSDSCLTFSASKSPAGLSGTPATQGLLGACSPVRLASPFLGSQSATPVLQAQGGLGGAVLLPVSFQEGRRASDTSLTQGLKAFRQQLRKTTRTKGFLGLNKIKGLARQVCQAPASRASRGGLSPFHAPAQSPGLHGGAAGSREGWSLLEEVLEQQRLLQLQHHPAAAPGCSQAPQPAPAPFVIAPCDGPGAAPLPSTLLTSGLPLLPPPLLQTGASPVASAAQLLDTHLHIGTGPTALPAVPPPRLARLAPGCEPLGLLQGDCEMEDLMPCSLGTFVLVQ
Chain of Src (P12931 whole entry): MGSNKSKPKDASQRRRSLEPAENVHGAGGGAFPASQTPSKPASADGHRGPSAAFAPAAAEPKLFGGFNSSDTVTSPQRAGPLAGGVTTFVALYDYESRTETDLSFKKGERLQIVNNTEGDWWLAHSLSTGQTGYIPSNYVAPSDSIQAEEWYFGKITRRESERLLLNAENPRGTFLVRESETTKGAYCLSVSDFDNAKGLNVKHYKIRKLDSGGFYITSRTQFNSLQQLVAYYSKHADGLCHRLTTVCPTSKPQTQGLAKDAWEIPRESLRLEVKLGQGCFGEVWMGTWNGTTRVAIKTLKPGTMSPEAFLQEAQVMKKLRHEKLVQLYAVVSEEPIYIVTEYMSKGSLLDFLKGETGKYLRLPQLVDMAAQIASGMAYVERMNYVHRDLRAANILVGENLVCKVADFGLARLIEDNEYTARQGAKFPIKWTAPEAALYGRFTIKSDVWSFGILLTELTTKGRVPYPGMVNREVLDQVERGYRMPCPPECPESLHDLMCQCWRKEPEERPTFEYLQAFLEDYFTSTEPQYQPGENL

Regarding `CN[C@H]1CC[C@@H](N2C(=O)N(c3c(C)cccc3F)Cc3cnc(N)nc32)CC1` [Example 60, cis-7-Amino-3-(2-fluoro-6-methyl-phenyl)-1-[4-(methylamino)cyclohexyl]-4H-pyrimido[4,5-d]pyrimidin-2-one], the Ki at SIK2 was found to be 0.464 nM; on SIK1 it was 1.38 nM; on SIK3, 2.6 nM; at Abl, 18 nM; on Src it was 73.6 nM; on EPHA2, 40.1 nM.

In the case of `CN[C@H]1CC[C@H](N2C(=O)N(c3c(C)cccc3F)Cc3cnc(N)nc32)CC1` [Example 61, trans-7-amino-3-(2-fluoro-6-methyl-phenyl)-1-[4-(methylamino)cyclohexyl]-4H-pyrimido[4,5-d]pyrimidin-2-one], the inhibition constant (Ki) at SIK2 is 0.101 nM; on SIK1, 0.171 nM; on SIK3 it was 0.28 nM; at Abl, 28.7 nM; on Src, 36.4 nM; at EPHA2 it was 19.8 nM.

Turning to `Cc1cccc(F)c1N1Cc2cnc(N)cc2N([C@H]2CC[C@@H](N)CC2)C1=O` [Example 62, cis-7-Amino-1-(4-aminocyclohexyl)-3-(2-fluoro-6-methyl-phenyl)-4H-pyrido[4,3-d]pyrimidin-2-one], the Ki on SIK2 amounted to 0.147 nM; on SIK1, 0.743 nM; on SIK3, 0.944 nM; on Abl it was 42.4 nM; at Src it was 31.2 nM; at EPHA2, 28.1 nM.

In the case of `CN[C@H]1CC[C@@H](N2C(=O)N(c3c(C)cccc3F)Cc3cnc(N)cc32)CC1` [Example 63, cis-7-amino-3-(2-fluoro-6-methyl-phenyl)-1-[4-(methylamino)cyclohexyl]-4H-pyrido[4,3-d]pyrimidin-2-one], the Ki on SIK2 was found to be 0.676 nM; at SIK1 it was 2.2 nM; on SIK3, 4.71 nM; on Abl, 11 nM; on Src, 40.5 nM; on EPHA2, 57.6 nM.

`CN[C@H]1CC[C@H](N2C(=O)N(c3c(C)cccc3F)Cc3cnc(N)cc32)CC1` [Example 64, trans-7-amino-3-(2-fluoro-6-methyl-phenyl)-1-[4-(methylamino)cyclohexyl]-4H-pyrido[4,3-d]pyrimidin-2-one]: the Ki came out at 0.343 nM on SIK2; 0.733 nM at SIK1; 1.35 nM on SIK3; 25.5 nM on Abl; 39.4 nM on Src; 97.4 nM at EPHA2.

For the molecule `Cc1cccc(F)c1N1Cc2cnc(N)nc2N([C@H]2CCNC2)C1=O` [Example 65, 7-Amino-3-(2-fluoro-6-methyl-phenyl)-1-[(3S)-pyrrolidin-3-yl]-4H-pyrimido[4,5-d]pyrimidin-2-one], the Ki on SIK2 was 1.11 nM; at SIK1 it was 2.8 nM; on SIK3 it was 20.8 nM; on Abl, > 1000 nM; on Src, > 1000 nM; at EPHA2, 149 nM.

With `Cc1cccc(F)c1N1Cc2cnc(N)nc2N([C@@H]2CCNC2)C1=O` [Example 67, 7-amino-3-(2-fluoro-6-methyl-phenyl)-1-[(3R)-pyrrolidin-3-yl]-4H-pyrimido[4,5-d]pyrimidin-2-one], the Ki on SIK2 was 3.15 nM; at SIK1, 5.83 nM; at SIK3, 41.3 nM; on Abl, 261 nM; on Src it was > 10000 nM; at EPHA2, 127 nM.

`Cc1cccc(F)c1N1Cc2cnc(N)nc2N([C@@H]2CCCNCC2)C1=O` [Example 68, 7-amino-1-[(4R)-azepan-4-yl]-3-(2-fluoro-6-methyl-phenyl)-4H-pyrimido[4,5-d]pyrimidin-2-one]: the Ki on SIK2 turned out to be 0.197 nM; at SIK1, 0.397 nM; at SIK3, 0.845 nM; at Abl, 15.3 nM; on Src, 47.7 nM; at EPHA2 it was 22.3 nM.

In general, Ki refers to a measure of affinity in units of concentration, obtained from inhibition or displacement.
